Measured values taken from patent publication US4156737A, “P-Aminomethyl-benzene-sulfonamide derivatives, process for their preparation and applications thereof” (priority 1977, dated 1979).
Structures can show the parent of a compound that is named as a salt.

Assays:
Staphylococcus = test: Anti-bacterial activity, agar dilutions on Mueller-Hinton medium, Staphylococcus; type: cell-based
Protocol: (§1) Various tests were used to determine the anti-bacterial activity of the products of Examples 1 and 2 with respect to p-aminomethyl-benzene-sulfonamide. Said tests were effected according to the agar dilutions on Mueller-Hinton medium. The inoculum is prepared by means of an automatic Multipoint Inoculation apparatus, with a 24 hrs broth culture diluted to 1/10.
(§2) The test materials are suspended in a Twin solution.
(§3) The following germ strains were used: E. coli 130; E. coli 3671; E. coli K 12; E. coli 334; Pseudomonas 66/5; Pseudomonas 630412; Pseudomonas Paffoni; Staphylococcus 209 P; Staphylococcus 153; Pseudomonas vulgaris 66/24; Proteus marg. 66/68; Proteus mirab. 564; Proteus mirab. 250; Serrata marcescens 67/14; Salmonella 29582; Salmonella gr. B; Providencia 70/13.

[1] = system: germ strains (E. coli, Pseudomonas, Staphylococcus, Proteus, Serrata marcescens, Salmonella, Providencia); test: Anti-bacterial activity, agar dilutions on Mueller-Hinton medium, all germ strains; type: cell-based; conditions: versus p-aminomethyl-benzene-sulfonamide
Protocol: as §1, §2, §3

[2] = system: holes punctured through the ears of New Zealand rabbits; test: Action on cicatrization of holes punctured through the ears of rabbits; type: in vivo; conditions: 10% suspension applied locally around ear hole; versus reference animals or p-aminomethyl-benzene-sulfonamide
Protocol: To evaluate the healing action of the products of Examples 1 and 2 holes of equal diameter were punctured through the ears of New Zealand rabbits, after which the time required for cicatrization of said holes to occur was determined in untreated reference rabbits, in rabbits treated locally around the hole punctured through the ear with a 10% p-aminomethyl-benzene-sulfonamide suspension or with a suspension of identical concentration of the products of Examples 1 and 2.

Pseudomonas = test: Anti-bacterial activity, agar dilutions on Mueller-Hinton medium, Pseudomonas; type: cell-based
Protocol: as §1, §2, §3

[3] = Hygroscopicity and stability of the isolated powder; type: physicochemical; conditions: white powder
Protocol: The material is allowed to rest at a temperature of 5° C. for 24 hours, after which the resulting product is filtered off.

skin of rabbits = test: Topical application on the skin of rabbits (tolerance); type: in vivo
Source text: (§4) High dosages of said products, suspended in suitable excipients, could be applied without any evidence of toxic symptons.
(§5) Application of said products was effected on the skin of animals both after depilation and after depilation and abrasion, so as to obtain continuous skin lesions.

skin of rats = test: Topical application on the skin of rats (tolerance); type: in vivo
Source text: as §4, §5

E. coli = test: Anti-bacterial activity, agar dilutions on Mueller-Hinton medium, E. coli; type: cell-based
Protocol: as §1, §2, §3

treated animals = test: Chronic toxicity, laboratory, organ and histological examinations of the treated animals; type: in vivo, rats and rabbits
Source text: In particular, no modification was found on examination of the weight increase, of the differential leucocyte count, of azotemia, of the transaminases and of urinary excretion.
Similarly, no modification was detected on anatomopathologic and physiological examinations conducted at the level of the main organs of the treated animals.

[4] = system: experimentally induced burns in male Sprague-Dawley rats; test: Protective action on experimentally induced burns; type: in vivo; conditions: for percent death rate of the burnt animals: after 48 hrs, versus reference animals or equivalent dosages of p-aminomethyl-benzene-sulfonamide; for protection compared with p-aminomethyl-benzene-sulfonamide: local; for protection compared with p-aminomethyl-benzene-sulfonamide / protective action against experimentally induced burns: 500 mg/kg; for protective action against experimentally induced burns: prior local administration
Protocol: The seriousness of the lesion thus induced is evaluated by means of the intravenous injection of Evans Blue, a vital dye.

mice = test: LD50 in mice, intraperitoneal route (acute toxicity); type: in vivo; conditions: for toxicity: general statement introducing LD50
[5] = as above; type: in vivo; conditions: mouse, in vivo, ip; mice, intraperitoneal route

Row | Molecule | susceptibility of species (Staphylococcus) | inhibiting action on the growth of the germ colonies [1] | tissue regeneration and cicatrization [2] | susceptibility of species (Pseudomonas) | hygroscopicity and stability [3] | tolerance and apparent toxicity after topical application (skin of rabbits; skin of rabbits, topical) | tolerance and apparent toxicity after topical application (skin of rats; skin of rats, topical) | susceptibility of species (E. coli) | histological examination of skin samples (treated animals; chronic topical treatment, inflammatory or degenerative modification) | percent death rate of the burnt animals [4] | protection compared with p-aminomethyl-benzene-sulfonamide [4] | protective action against experimentally induced burns [4] | toxicity (mice) | LD50 (mice; mice, intraperitoneal route) | tolerance and apparent toxicity after topical application (skin of rabbits; rabbit, in vivo) | tolerance and apparent toxicity after topical application (skin of rats; rat, in vivo) | histological examination of skin samples (treated animals; in vivo) | LD50 [5]
1 | p-aminomethyl-benzene-sulfonamide, zinc salt [Example 2] | particularly susceptible | higher inhibiting action at lower concentrations than p-aminomethyl-benzene-sulfonamide | much more rapid than in the reference animals or in the animals treated with p-aminomethyl-benzene-sulfonamide | particularly susceptible | non-hygroscopic stable | equally well tolerated and free from any apparent toxicity | equally well tolerated and free from any apparent toxicity | particularly susceptible | failed to disclose any modification of inflammatory or degenerative type | lower | superior to that exerted by p-aminomethyl-benzene-sulfonamide | exerts a protective action against experimentally induced burns, by inhibiting or decreasing the intensity and the seriousness of the local lesions | very low toxicity | 80 mg/kg |  |  |  | 
2 | NCc1ccc(S(N)(=O)=O)cc1 [Example 1, p-aminomethyl-benzene-sulfonamide, silver salt] | particularly susceptible | higher inhibiting action at lower concentrations than p-aminomethyl-benzene-sulfonamide | much more rapid than in the reference animals or in the animals treated with p-aminomethyl-benzene-sulfonamide | particularly susceptible |  |  |  | particularly susceptible |  | lower | superior to that exerted by p-aminomethyl-benzene-sulfonamide | exerts a protective action against experimentally induced burns, by inhibiting or decreasing the intensity and the seriousness of the local lesions | very low toxicity |  | equally well tolerated and free from any apparent toxicity | equally well tolerated and free from any apparent toxicity | failed to disclose any modification of inflammatory or degenerative type | 55 mg/kg
